Test system: TDP-43 aggregation in PC12 cells stably expressing TDP-43^Q331K::eGFP
Test: In vitro efficacy assay, TDP-43 aggregation concentration-response
Assay type: cell-based
Details: Rattus norvegicus, PC-12, inhibition of TDP-43 aggregation; PC12 TDP-43^Q331K::eGFP, 1 hour pre-treatment, 15 μM sodium arsenite for 23 hours; 10-point dose response
Experimental: Exemplary compounds of the invention were evaluated for efficacy in inhibiting TDP-43 inclusions using a concentration-response assay. Briefly, PC12 cells stably expressing a GFP-tagged mutant form of TDP-43 (TDP-43^Q331K::eGFP) were pre-treated for 1 hour with exemplary compounds and stressed with 15 μM sodium arsenite for 23 hours to induce TDP-43 aggregation. The inhibitory effect on TDP-43 aggregation was measured using fluorescence microscopy. The ratio of cells with TDP-43 aggregates was calculated based on the total number of cells with detectable GFP expression.

Structure (SMILES)	IC50 [µM]
CCN(CC1CCCN(CCc2ccccc2F)C1)C(=O)c1cc2ccccc2[nH]1 (centres unmarked) [Compound 123]	1.5 to 4
COc1cccc(CCN2CCCC(CN(Cc3ccccc3)C(=O)c3cc4ccccc4[nH]3)C2)c1 (centres unmarked) [Compound 218]	> 10
CCN(CC1CCCN(Cc2ccc(Cl)cc2)C1)C(=O)c1cc2cc(Cl)ccc2[nH]1 (centres unmarked) [Compound 160]	< 1.5
CCN(CC1CCCN(CCc2ccc3c(c2)OCC3)C1)C(=O)c1cc2ccccc2[nH]1 (centres unmarked) [Compound 145]	1.5 to 4
COc1cccc(CCN2CCCC(CN(C)C(=O)c3cc4ccccc4[nH]3)C2)c1 (centres unmarked) [Compound 217]	< 1.5
COc1cccc(CCN2CCCC(N(C)C(=O)c3cc4ccccc4[nH]3)C2)c1 (centres unmarked) [Compound 222]	> 10
CCN(CC1CCCCN1CCc1cccc(OC)c1)C(=O)c1cc2ccccc2[nH]1 (centres unmarked) [Compound 224]	1.5 to 4
CCN(CC1CCCN(c2cccc(OC)c2)C1)C(=O)c1cc2ccccc2[nH]1 (centres unmarked) [Compound 228]	> 10
CCN(CC1CCCN(CCc2ccc(F)cc2)C1)C(=O)c1cc2ccccc2[nH]1 (centres unmarked) [Compound 126]	> 10
CCN(CC1CCCN(CCc2ccccc2Cl)C1)C(=O)c1cc2ccccc2[nH]1 (centres unmarked) [Compound 139]	1.5 to 4
CCN(CC1CCCN(Cc2ccc(Cl)cc2)C1)C(=O)c1cc2cccc(F)c2[nH]1 (centres unmarked) [Compound 157]	> 10
CCN(CC1CCCN(Cc2ccc(Cl)cc2)C1)C(=O)c1cc2c(F)cccc2[nH]1 (centres unmarked) [Compound 165]	1.5 to 4
CCN(CC1CCCN(Cc2ccc(OC)cc2)C1)C(=O)c1cc2c(Cl)cc(Cl)cc2[nH]1 (centres unmarked) [Compound 154]	1.5 to 4
CCN(CC1CCCN(Cc2ccc(C(=O)O)cc2)C1)C(=O)c1cc2ccccc2[nH]1 (centres unmarked) [Compound 213]	> 10
CCN(CC1CCCN(Cc2ccc(OC)cc2)C1)C(=O)c1cc2cc(F)c(F)cc2[nH]1 (centres unmarked) [Compound 171]	< 1.5
CCN(CC1CCCN(CCc2cc3ccccc3o2)C1)C(=O)c1cc2ccccc2[nH]1 (centres unmarked) [Compound 181]	7 to 9.9
COc1cccc(CCN2CCCC(CN(C(=O)c3cc4ccccc4[nH]3)C3CCCCC3)C2)c1 (centres unmarked) [Compound 219]	< 1.5
CCN(CC1CCCN(CCc2cccc(OC(F)(F)F)c2)C1)C(=O)c1cc2cc(OC(F)(F)F)ccc2[nH]1 (centres unmarked) [Compound 179]	4 to 7
CCN(CC1CCCN(Cc2ccc(OC)cc2)C1)C(=O)c1cc2c(F)cc(F)cc2[nH]1 (centres unmarked) [Compound 170]	< 1.5
CCN(CC1CCCN(Cc2ccc(Cl)cc2)C1)C(=O)c1cc2ccccc2[nH]1 (centres unmarked) [Compound 138]	< 1.5
CCN(CC1CCCN(Cc2ccc(Cl)cc2)C1)C(=O)c1cc2cc(F)ccc2[nH]1 (centres unmarked) [Compound 150]	< 1.5
CCN(CC1CCCN(CCc2ccccc2)C1)C(=O)c1cc2ccccc2[nH]1 (centres unmarked) [Compound 216]	1.5 to 4
CCN(CC1CCN(CCc2cccc(OC)c2)C1)C(=O)c1cc2ccccc2[nH]1 (centres unmarked) [Compound 223]	1.5 to 4
CCN(CC1CCCN(Cc2ccc(OC(F)F)cc2)C1)C(=O)c1cc2cc(OC(F)F)ccc2[nH]1 (centres unmarked) [Compound 178]	< 1.5
CCN(CC1CCCN(Cc2ccc(Cl)cc2)C1)C(=O)c1cc2ccc(Cl)cc2[nH]1 (centres unmarked) [Compound 164]	1.5 to 4
CCN(CC1CCCN(CCc2cccc(Cl)c2)C1)C(=O)c1cc2ccccc2[nH]1 (centres unmarked) [Compound 141]	< 1.5
CCN(CC1CCCN(Cc2ccc(Cl)cc2)C1)C(=O)c1cc2c(OC)cccc2[nH]1 (centres unmarked) [Compound 163]	< 1.5
CCN(CC1CCCN(S(=O)(=O)c2ccc(OC)cc2)C1)C(=O)c1cc2ccccc2[nH]1 (centres unmarked) [Compound 200]	1.5 to 4
CCN(CC1CCCN(Cc2cc3ccccc3o2)C1)C(=O)c1cc2c(F)cc(F)cc2[nH]1 (centres unmarked) [Compound 205]	1.5 to 4
CCN(CC1CCCN(Cc2ccccc2C#N)C1)C(=O)c1cc2ccccc2[nH]1 (centres unmarked) [Compound 130]	1.5 to 4

More lines, now with the values ahead:

IC50 [µM]	Structure (SMILES)
< 1.5	COc1ccc(CC(=O)N2CCC(CNC(=O)c3cc4ccccc4[nH]3)CC2)cc1 [Compound 323]
> 10	O=C(NCC1CCN(Cc2ccccc2Cl)CC1)c1cc2ccccc2[nH]1 [compound 293]
< 1.5	CCN(CC1CCN(C2(Cc3cccc(OC)c3)CC2)CC1)C(=O)c1cc2ccccc2[nH]1 [Compound 360]
1.5 to 4	CCN(CC1CCCN(C(C)(C)Cc2cccc(OC)c2)C1)C(=O)c1cc2ccccc2[nH]1 (centres unmarked) [compound 312]
> 10	CCN(CC1CCCN(CC(C)(C)c2cccc(OC(F)(F)F)c2)C1)C(=O)c1cc2cc(OC(F)(F)F)ccc2[nH]1 (centres unmarked) [Compound 407]
< 1.5	CCN(CC1CCCN(CCc2cccc(OC)c2)C1)C(=O)c1cn(C)c2ccccc12 (centres unmarked) [Compound 248]
1.5 to 4	CCN(CC1CCN(Cc2ccccc2Cl)CC1)C(=O)c1cc2ccccc2[nH]1 [compound 286]
< 1.5	CC(C)(Cc1cccc(F)c1)N1CCC(CN(CC(F)(F)F)C(=O)c2cc3ccccc3[nH]2)CC1 [Compound 353]
4 to 7	COc1ccccc1CN1CCC(CN(C)C(=O)c2cc3ccccc3[nH]2)CC1 [compound 260]
< 1.5	CCN(CC1CCN(C(C)(C)Cc2cccc(F)c2OC)CC1)C(=O)c1cc2ccccc2[nH]1 [Compound 364]
> 10	CCN(CC1CCN(Cc2ccc(F)cc2)CC1)C(=O)c1cc2ccccc2[nH]1 [compound 290]
1.5 to 4	CCN(CC1CCN(CCc2cccc(OC)c2)CC1)C(=O)c1cc2ccccc2[nH]1 [compound 253]
< 1.5	CCN(CC1CCCN(CCc2cccc(OC)c2)C1)C(=O)c1c[nH]c2ccccc12 (centres unmarked) [Compound 232]
> 10	CCN(CC1CCCN(CCc2cccc(OC)c2)C1)C(=O)c1nc2ccccc2n1C (centres unmarked) [Compound 240]
< 1.5	CCN(CC1CCCN(CCc2cccc(OC)c2)C1)C(=O)c1nc2ccccc2[nH]1 (centres unmarked) [Compound 230]
> 10	CCN(CC1CCN(Cc2cccc(OC(F)(F)F)c2)CC1)C(=O)c1cc2cc(OC(F)(F)F)ccc2[nH]1 [compound 308]
> 10	O=C(NCC1CCN(Cc2cccc(F)c2)CC1)c1cc2ccccc2[nH]1 [compound 270]
1.5 to 4	CCN(CC1CCN(C(C)(C)CC2CCOCC2)CC1)C(=O)c1cc2ccccc2[nH]1 [Compound 365]
> 10	COc1ccc(CN2CCC(CNC(=O)c3cc4ccccc4[nH]3)CC2)cc1 [compound 274]
1.5 to 4	CCN(CC1CCN(C(C)(C)Cc2ccccc2F)CC1)C(=O)c1cc2ccccc2[nH]1 [Compound 343]
< 1.5	CCN(CC1CCCN(C(C)(C)c2ccc(OC)cc2)C1)C(=O)c1cc2cc(OC)ccc2[nH]1 (centres unmarked) [Compound 356]

IC50 [µM]	Structure (SMILES)
1.5 to 4	CCN(CC1CCCN(CCc2cccc(OC)c2)C1)C(=O)c1cc2ccccc2s1 (centres unmarked) [Compound 235]
< 1.5	CCN(CC1CCCNC1)C(=O)c1cc2ccc(Cl)cc2[nH]1 (centres unmarked) [compound 423]
> 10	CCN(CC1CCCNC1)C(=O)c1cc2cccc(F)c2[nH]1 (centres unmarked) [compound 418]
7 to 9.9	CCN(CC1CCN(Cc2ccc(OC(F)F)cc2)CC1)C(=O)c1cc2cc(OC(F)F)ccc2[nH]1 [compound 311]
1.5 to 4	CCN(CC1CCCN(CCc2cccc(OC)c2)C1)C(=O)c1cc(C)c[nH]1 (centres unmarked) [Compound 229]
4 to 7	O=C(NCC1CCN(Cc2ccccc2)CC1)c1cc2ccccc2[nH]1 [compound 295]
1.5 to 4	CC(C)N(CC1CCN(Cc2ccccc2)CC1)C(=O)c1cc2ccccc2[nH]1 [compound 285]
> 10	O=C(NCC1CCN(Cc2ccccc2F)CC1)c1cc2ccccc2[nH]1 [compound 272]
> 10	O=C(NCC1CCN(Cc2ccc(F)cc2)CC1)c1cc2ccccc2[nH]1 [compound 294]
< 1.5	CCN(CC1CCCN(C(C)(C)Cc2cccc(Cl)c2)C1)C(=O)c1cc2ccccc2[nH]1 (centres unmarked) [compound 314]
> 10	CCN(CC1CCCN(CCc2cccc(OC)c2)C1)C(=O)c1nc2ccccc2o1 (centres unmarked) [Compound 241]
> 10	CN(CC1CCNCC1)C(=O)c1cc2ccccc2[nH]1 [compound 254]
4 to 7	CCN(CC1CCN(Cc2ccccc2OC)CC1)C(=O)c1cc2ccccc2[nH]1 [compound 287]
< 1.5	CCN(CC1CCCN(C(C)(C)c2ccc(OC)cc2)C1)C(=O)c1cc2cc(Cl)ccc2[nH]1 (centres unmarked) [Compound 357]
4 to 7	CCN(CC1CCN(Cc2cccc(Cl)c2)CC1)C(=O)c1cc2ccccc2[nH]1 [compound 266]
< 1.5	COc1ccc(C(=O)N2CCC(CNC(=O)c3cc4ccccc4[nH]3)CC2)cc1 [Compound 321]
> 10	CCN(CC1CCCNC1)C(=O)c1cc2ccc(OC)cc2[nH]1 (centres unmarked) [compound 419]
1.5 to 4	O=C(NCC1CCNCC1)c1cc2ccccc2[nH]1 [Compound 264]
< 1.5	COc1cccc(CC(C)(C)N2CCC(CN(CC(F)(F)F)C(=O)c3cc4ccccc4[nH]3)CC2)c1 [Compound 350]
1.5 to 4	CCN(CC1CCN(CC(F)(F)c2cccc(F)c2)CC1)C(=O)c1cc2ccccc2[nH]1 [Compound 410]
> 10	CCN(CC1CCN(Cc2ccc(OC(F)(F)F)cc2)CC1)C(=O)c1cc2cc(OC(F)(F)F)ccc2[nH]1 [compound 309]

Same assay, conditions: inhibition of TDP-43 aggregation; PC12 TDP-43^Q331K::eGFP, 1 hour pre-treatment, 15 μM sodium arsenite for 23 hours; 10-point dose response

IC50 [µM]	Structure (SMILES)
< 1.5	CCN(CC1CCCN(C(C)(C)Cc2cccc(OC(F)(F)F)c2)C1)C(=O)c1cc2cc(OC(F)(F)F)ccc2[nH]1 (centres unmarked) [Compound 337]
< 1.5	CCN(CC1CCCN(C(C)(C)c2cc3ccccc3o2)C1)C(=O)c1cc2ccccc2[nH]1 (centres unmarked) [Compound 338]
